For this assay, the system named is pseudotype VSV (expressing GFP) having the surface glycoprotein of Ebola virus (zaire sp.). Description: microbe, parasite or virus in culture. The format is cell-based. The settings on record: for activity at 0.005 µM / activity at 0.078 µM / activity at 0.312 µM / activity at 1.25 µM / activity at 5 µM / activity at 0.625 µM / activity at 2.5 µM / activity at 0.02 µM: Vesicular stomatitis virus, Vero C1008, 18 h, read-out: Viral Infection rate (%); for activity at 0.005 µM: Compound Conc. 0.005 μM; for activity at 0.078 µM: Compound Conc. 0.078 μM; for activity at 0.312 µM: Compound Conc. 0.312 μM; for activity at 1.25 µM: Compound Conc. 1.25 μM; for activity at 0.625 µM: Compound Conc. 0.625 μM; for activity at 2.5 µM: Compound Conc. 2.5 μM; for activity at 0.02 µM: Compound Conc. 0.020 μM.

`CCN1CCC(CN(c2ccc(OC)cc2-c2ccccc2F)S(=O)(=O)c2ccccc2)CC1` [4-57, N-[2-(2-fluorophenyl)-4-methoxy-phenyl)-N-(1-ethyl-4-piperidylmethyl)benzensulfonamide]: the activity at 0.005 µM was 101%, the activity at 0.078 µM came to 93.3%, the activity at 0.312 µM amounted to 58.2% and the activity at 1.25 µM amounted to 1%. In addition, the activity at 5 µM (Compound Conc. 5 μM) amounted to 0.83%.

In the case of `CCN(CC)CCCN(c1ccc(OC)cc1[N+](=O)[O-])S(=O)(=O)c1ccccc1F` [4-5, 2-fluoro-N-[3-(diethylamino)propyl]-N-(4-methoxy-2-nitro-phenyl)benzensulfonamide], the activity at 0.625 µM was 94.2% and the activity at 1.25 µM was found to be 54.9%. The activity at 5 µM (Compound Conc. 5 μM) amounted to 3.18%.

With `CCN(CC)CCCN(c1ccc(OC)cc1[N+](=O)[O-])S(=O)(=O)c1ccc(F)cc1` [4-3, 4-fluoro-N-[3-(diethylamino)propyl]-N-(4-methoxy-2-nitro-phenyl)benzensulfonamide], the activity at 0.312 µM turned out to be 105%, the activity at 0.625 µM amounted to 88.1%, the activity at 1.25 µM is 52.8% and the activity at 2.5 µM worked out at 18.4%. Further, the activity at 5 µM (Compound Conc. 5 μM) was 3.8%.

With `COc1ccc(N(CCCNC(=O)OC(C)(C)C)S(=O)(=O)c2ccccc2)c(-c2ccccc2)c1` [4-31, t-butyl-N-[3-[N-(benzenesulfonyl)-4-methoxy-2-phenyl-anilino]propyl]carbamate], the activity at 0.312 µM was roughly 100%. The activity at 5 µM (Compound Conc. 5 μM) was 8.51%.

For the molecule `CCN(CC)CCCN(c1ccc(OC)cc1[N+](=O)[O-])S(=O)(=O)c1ccc2ccccc2c1` [4-10, N-[3-(diethylamino)propyl]-N-(4-methoxy-2-nitro-phenyl)naphthalene-2-sulfonamide], the activity at 0.312 µM came out at 106%, the activity at 0.625 µM was found to be 103% and the activity at 2.5 µM was 22.7%. Further, where the note is “Compound Conc. 5 μM”, the activity at 5 µM was 3.57%.

For the molecule `COc1ccc(N(CC2CCCN(C)C2)S(=O)(=O)c2ccccc2)c(-c2ccccc2)c1` (stereo not shown) [4-42], the activity at 0.005 µM stood at 95.6%, the activity at 0.02 µM turned out to be 101%, the activity at 0.078 µM came to 102% and the activity at 0.312 µM came out at 93%. Moreover, the activity at 0.625 µM is 28.4% and the activity at 2.5 µM was 0.25%. Under “Compound Conc. 5 μM”, the “Viral Infection rate (%)” value was found to be 0.00% and the activity at 5 µM was roughly 0%.

Regarding `CCN(CC)CCCN(c1ccc(OC)cc1[N+](=O)[O-])S(=O)(=O)c1ccccc1` [4-1, N-[3-(diethylamino)propyl]-N-(4-methoxy-2-nitro-phenyl)benzensulfonamide], the activity at 0.312 µM was 87.5%, the activity at 0.625 µM is roughly 38%, the activity at 1.25 µM was roughly 12% and the activity at 2.5 µM is 2.83%. For the setting “Compound Conc. 5 μM”, the activity at 5 µM was 1.83%.

Take `CCN(CC)CCCN(c1ccccc1-c1ccccc1)S(=O)(=O)c1ccccc1` [4-8, N-[3-(diethylamino)propyl]-N-(2-phenyl-phenyl)benzensulfonamide]: the activity at 0.312 µM came to 89%, the activity at 1.25 µM was determined as 10.8% and the activity at 2.5 µM came out at 1.93%. The activity at 5 µM (Compound Conc. 5 μM) came out at 1.11%.

With `CCN1CCC(CN(c2ccc(OC)cc2-c2cccc(F)c2)S(=O)(=O)c2ccccc2)CC1` [4-54, N-[2-(3-fluorophenyl)-4-methoxy-phenyl)-N-(1-ethyl-4-piperidylmethyl)benzensulfonamide], the activity at 0.02 µM was 90%, the activity at 0.078 µM was found to be 74.5%, the activity at 0.312 µM came to 28.6% and the activity at 1.25 µM turned out to be 0.1%. For the same molecule, the activity at 5 µM (Compound Conc. 5 μM) is 0%.

For the molecule `CCN1CCC(CN(c2ccc(OC)cc2-c2ccc(F)cc2)S(=O)(=O)c2ccccc2)CC1` [4-51, N-[2-(4-fluorophenyl)-4-methoxy-phenyl)-N-(1-ethyl-4-piperidylmethyl)benzensulfonamide], the activity at 0.005 µM is 92.2%, the activity at 0.02 µM was found to be 84.5%, the activity at 0.078 µM was determined as 45% and the activity at 0.312 µM is 11.9%. The activity at 1.25 µM worked out at 0.51%. Besides, the activity at 5 µM (Compound Conc. 5 μM) came to 0%.

Regarding `COc1ccc(N(CCN(C)C)S(=O)(=O)c2ccccc2)c(-c2ccccc2)c1` [4-33, N-[3-(dimethylamimo)ethyl]-N-(4-methoxy-2-phenyl-phenyl)benzensulfonamide], the activity at 0.312 µM was 81.1%, the activity at 0.625 µM is 71.3%, the activity at 1.25 µM was determined as 17.1% and the activity at 2.5 µM turned out to be 1.51%. Further, the activity at 5 µM (Compound Conc. 5 μM) stood at 0.1%.

As to `CCN(CC)CCCN(c1ccc(OC)cc1[N+](=O)[O-])S(=O)(=O)c1cccc(F)c1` [4-4, 3-fluoro-N-[3-(diethylamino)propyl]-N-(4-methoxy-2-nitro-phenyl)benzensulfonamide], the activity at 0.312 µM was 84.4%, the activity at 0.625 µM was 71.3%, the activity at 1.25 µM worked out at 29.7% and the activity at 2.5 µM was 8.13%. Where the note is “Compound Conc. 5 μM”, the activity at 5 µM was found to be 2.05%.

For the molecule `CCN(CC)CCCN(c1ccc(OC)cc1[N+](=O)[O-])S(=O)(=O)c1ccccc1C` [4-7, 2-methyl-N-[3-(diethylamino)propyl]-N-(4-methoxy-2-nitro-phenyl)benzensulfonamide], the activity at 0.312 µM turned out to be 87.2%, the activity at 0.625 µM turned out to be 68.4%, the activity at 1.25 µM was 37% and the activity at 2.5 µM was determined as 12.9%. For the same molecule, under “Compound Conc. 5 μM”, the activity at 5 µM was 5.08%.

`CCN(CC)CCCN(c1ccc(OC)cc1-c1ccc(F)cc1)S(=O)(=O)c1ccccc1` [4-68, N-[3-(diethylamino)propyl]-N-[2-(4-fluorophenyl)-4-methoxy-phenyl)benzensulfonamide]: the activity at 0.005 µM came out at 99.3% and the activity at 0.312 µM was 52.8%. Besides, the activity at 5 µM (Compound Conc. 5 μM) came out at 0.25%.

Turning to `CCN1CCCC(CN(c2ccc(OC)cc2-c2ccccc2)S(=O)(=O)c2ccccc2)C1` (stereo not shown) [4-25], the activity at 0.312 µM was 58.1%, the activity at 0.625 µM amounted to 24.3%, the activity at 1.25 µM amounted to 2.51% and the activity at 2.5 µM is 0.14%. For the same molecule, where the note is “Compound Conc. 5 μM”, the activity at 5 µM was determined as 0.14%.

As to `CCN1CCC(CN(c2ccc(C(C)(C)C)cc2-c2ccccc2)S(=O)(=O)c2ccccc2)CC1` [4-48, N-(4-t-butyl-2-phenyl-phenyl)-N-(1-ethyl-4-piperidylmethyl)benzensulfonamide], the activity at 0.005 µM came to 97.1%, the activity at 0.02 µM is 104% and the activity at 0.078 µM is 96.3%. Moreover, the activity at 5 µM (Compound Conc. 5 μM) was 47.6%.

On to `CCN(CC)CCCN(c1ccc(OC)cc1[N+](=O)[O-])S(=O)(=O)c1ccc(OC)cc1` [4-11, 4-methoxy-N-[3-(diethylamino)propyl]-N-(4-methoxy-2-nitro-phenyl)benzensulfonamide], for which the activity at 0.312 µM turned out to be 88.3%. Besides, for the setting “Compound Conc. 5 μM”, the activity at 5 µM came out at 2.09%.

`COc1ccc(N(CC2CCNCC2)S(=O)(=O)c2ccccc2)c(-c2ccccc2)c1` [4-19, N-(4-methoxy-2-phenyl-phenyl)-N-(4-piperidylmethyl)benzensulfonamide]: the activity at 0.312 µM was 83.3%, the activity at 0.625 µM was determined as 78.5% and the activity at 1.25 µM was 52.3%. Also, the activity at 5 µM (Compound Conc. 5 μM) came out at 2.2%.

Turning to `CNCCCN(c1ccc(OC)cc1-c1ccccc1)S(=O)(=O)c1ccccc1` [4-30, N-(4-methoxy-2-phenyl-phenyl)-N-[3-(methylamino)propyl]-benzensulfonamide], the activity at 0.005 µM came out at 92.6%, the activity at 0.02 µM turned out to be 91%, the activity at 0.078 µM was 78.1% and the activity at 0.625 µM was found to be 80.8%. The activity at 2.5 µM amounted to 4.17%.

Consider `CCN1CCC(CN(c2ccc(OC)cc2-c2ccccc2)S(=O)(=O)c2cccc(F)c2)CC1` [4-63, 3-fluoro-N-(4-methoxy-2-phenyl-phenyl)-N-(1-ethyl-4-piperidylmethyl)benzensulfonamide], for which the activity at 0.005 µM is 96.7%, the activity at 0.02 µM came to 96.2%, the activity at 0.078 µM turned out to be 78.2% and the activity at 0.312 µM was found to be 34.3%. The activity at 1.25 µM worked out at 0.81%. Where the note is “Compound Conc. 5 μM”, the activity at 5 µM turned out to be 0%.

As for `CCN(CC)CCCN(c1ccc(OC)cc1[N+](=O)[O-])S(=O)(=O)c1cccc(C)c1` [4-6, 3-methyl-N-[3-(diethylamino)propyl]-N-(4-methoxy-2-nitro-phenyl)benzenesulfonamide], the activity at 0.312 µM worked out at 91.2%, the activity at 0.625 µM was determined as 91.1%, the activity at 1.25 µM was 57.1% and the activity at 2.5 µM worked out at 20.1%. Also, the activity at 5 µM (Compound Conc. 5 μM) came to 3.8%.

As to `COc1ccc(N(CCN2CCOCC2)S(=O)(=O)c2ccccc2)c(-c2ccccc2)c1` [4-34, N-(4-methoxy-2-phenyl-phenyl)-N-(2-morpholinoethyl)benzensulfonamide], the activity at 1.25 µM stood at 76.9% and the activity at 2.5 µM was determined as 40.2%. The activity at 5 µM (Compound Conc. 5 μM) was 4.56%.

Consider `CCN(CC)CCCN(c1ccccc1-c1ccccc1)S(=O)(=O)c1ccc(OC)cc1` [4-14, 4-methoxy-N-[3-(diethylamino)propyl]-N-(2-phenyl-phenyl)benzensulfonamide], for which the activity at 0.312 µM came out at 77.4%, the activity at 0.625 µM was 42.2% and the activity at 1.25 µM was 7.82%. The activity at 5 µM (Compound Conc. 5 μM) turned out to be 0.83%.

As for `CCOc1ccc(N(CC2CCN(CC)CC2)S(=O)(=O)c2ccccc2)c(-c2ccccc2)c1` [4-39], the activity at 0.005 µM came out at 98.4%, the activity at 0.02 µM came out at 103% and the activity at 1.25 µM stood at 116%.

Values taken from patent US20210107871A1 (priority 2017, published 2021).
